Data: patent EP0649467B1, “SELF-STABILIZED OLIGONUCLEOTIDES AS THERAPEUTIC AGENTS” (HYBRIDON, Inc., priority 1992, dated 1994)
pIC50: −log10 of the molar value. Read-outs that look alike come from different tables or passages of the source.

Experiments:
[1] = tested on: HIV-1; assay: Anti-HIV activity: p24 expression by ELISA in HIV-1 infected H9 lymphocytes; format: cell-based; set-up: Inhibition of p24 (%): dose or concentration left out as unconfirmed; settings: for Inhibition of p24 (%): three days; for pIC50: Human immunodeficiency virus 1, Lymphocyte, p24 expression, positive control
Protocol: H9 lymphocytes were infected with HIV-1 virions (≡0.01 - 0.1 TCID50/cell) for one hour at 37°C. After one hour, unadsorbed virions were washed and the infected cells were divided among wells of 24 well plates. To the infected cells, an appropriate concentration (from stock solution) of oligonucleotide was added to obtain the required concentration in 2 ml medium. In a positive control experiment ddC or AZT was added. The cells were then cultured for three days. At the end of three days, supernatant from the infected culture was collected and measured for p24 expression by ELISA. The level of expression of p24 was compared between oligonucleotide treated and untreated (no drug) infected cells.

[2] = tested on: H9 lymphocytes; assay: Cytotoxicity by trypan blue dye exclusion; format: cell-based; set-up: dose or concentration left out as unconfirmed
From the text: Cytotoxicity of oligonucleotides was studied by culturing the cells with increasing concentration of oligonucleotide and by the trypan blue dye exclusion method.

[3] = Experiment 1, concentration 0.04
[4] = Experiment 1, concentration 0.08
[5] = Experiment 1, concentration 0.2
[6] = Experiment 1, concentration .0016
[7] = Experiment 2, concentration 0.0016
[8] = Experiment 2, concentration 0.008
[9] = Experiment 2, concentration 0.04
[10] = Experiment 2, concentration 0.2

Structure (SMILES): Cc1cn([C@H]2C[C@H](N=[N+]=[N-])[C@@H](CO)O2)c(=O)[nH]c1=O [AZT]
- Inhibition of p24 (%) [1, 3]: 73%
- Inhibition of p24 (%) [1, 4]: 44%
- Inhibition of p24 (%) [1, 5]: 90%
- Inhibition of p24 (%) [1, 6]: 6%
- Inhibition of p24 (%) [1, 7]: 6%
- Inhibition of p24 (%) [1, 8]: 5%
- Inhibition of p24 (%) [1, 9]: 65%
- Inhibition of p24 (%) [1, 10]: 89%
- pIC50 ([1]; Experiment 1, read-out: IC50): 7.43
- pIC50 ([1]; Experiment 2): 7.00
- % Cell Survival [2, 3]: 98%
- % Cell Survival [2, 4]: 104%
- % Cell Survival [2, 5]: 95%
- % Cell Survival [2, 6]: 108%
- % Cell Survival [2, 7]: 103%
- % Cell Survival [2, 8]: 101%
- % Cell Survival [2, 9]: 98%
- % Cell Survival [2, 10]: 93%
